We go through two compounds from patent US20180338918A1, “TEMSIROLIMUS LIPOSOME AND PREPARATION METHOD THEREOF” (JIANGSU TASLY DIYI PHARMACEUTICAL CO., LTD., priority 2017, published 2018).

The conditions of data set [1]: background statement; cited from earlier work.
Data set [2] is described as follows: Solubility of temsirolimus in common oils for injection (medium chain oil, soybean oil). The format is physicochemical. The note with it: for Dissolution state: 30 min. The text has this: Investigation of the solubility of temsirolimus in common oils for injection (medium chain oil, soybean oil)
A short description of data set [3]: Sulfobutyl ether-β-cyclodextrin inclusion of temsirolimus, appearance of the solution. It is filed as physicochemical. The note with it: 1 mg/mL temsirolimus; application amount of sulfobutyl ether-β-cyclodextrin 50%. The protocol: The druggabilities of sulfobutyl ether-β-cyclodextrin inclusion complex, liposome, and fat emulsion were investigated. The drug loading was fixed at 1 mg/ml for parallel comparisons. The main study protocol and results were summarized as follows:
Formula amount of sulfobutyl ether-β-cyclodextrin was weighed, and dissolved by adding quantum satis water for injection, and setting the volume thereof to 100 mL; formula amount of temsirolimus was weighed, added into the aqueous solution of sulfobutyl ether-β-cyclodextrin, and stirred them at room temperature for 2 h.
Formula amount of sulfobutyl ether-β-cyclodextrin was weighed, dissolved by adding quantum satis water for injection to give an aqueous phase; formula amounts of temsirolimus and organic vehicle (anhydrous ethanol, or propanediol, or PEG4000) were weighed, dissolved by water-bath ultrasound to give an organic phase; the organic phase was poured into the aqueous phase with stirring, and mixed uniformly, and setting the volume thereof to full volume with water for injection, and thus the formulations were obtained.

Data set [4] concerns mice. The note with it: injected via tail vein of mice, compared with Tween 80; cited from earlier work.

On to `CO[C@H]1C[C@@H]2CC[C@@H](C)[C@@](O)(O2)C(=O)C(=O)N2CCCC[C@H]2C(=O)O[C@H]([C@H](C)C[C@@H]2CC[C@@H](OC(=O)C(C)(CO)CO)[C@H](OC)C2)CC(=O)[C@H](C)/C=C(\C)[C@@H](O)[C@@H](OC)C(=O)[C@H](C)C[C@H](C)/C=C/C=C/C=C/1C` [temsirolimus, 42-bis(hydroxymethyl) propionate of sirolimus], for which the Solubility in water entry in data set [1] is “almost insoluble in water”. Also, the Dissolution state result in data set [2] (Medium chain oil, 10 mg/g, 60° C.) is reported as “Severe”; in data set [2] (Medium chain oil, 10 mg/g, 70° C.), “Severe”; in data set [2] (Medium chain oil, 10 mg/g, 80° C.), “Severe”; in data set [2] (Medium chain oil, 20 mg/g, 60° C.), “Severe”; in data set [2] (Medium chain oil, 20 mg/g, 70° C.), “Severe”; in data set [2] (Medium chain oil, 20 mg/g, 80° C.), “Severe”. Besides, the Dissolution state result was “Severe” in data set [2] (Medium chain oil, 30 mg/g, 60° C.); “Severe” in data set [2] (Medium chain oil, 30 mg/g, 70° C.); “Severe” in data set [2] (Medium chain oil, 30 mg/g, 80° C.); “Severe” in data set [2] (Medium chain oil, 40 mg/g, 60° C.); “Severe” in data set [2] (Medium chain oil, 40 mg/g, 70° C.); “Severe” in data set [2] (Medium chain oil, 40 mg/g, 80° C.). The Dissolution state result in data set [2] (Soybean oil, 10 mg/g, 60° C.) was “Severe”; in data set [2] (Soybean oil, 10 mg/g, 70° C.), “Severe”; in data set [2] (Soybean oil, 10 mg/g, 80° C.), “Severe”. The “Solubilities in the medium chain oil and soybean oil” value in data set [2] (summary in words) is recorded as “poor”. For the same compound, the “Inclusion of temsirolimus by sulfobutyl ether-β-cyclodextrin” value in data set [3] is reported as “cannot be included”.

Regarding polyethylene glycol stearate 15, the Acute toxicity entry in data set [4] is “great, even greater than that of Tween 80”.
